Experimental data from patent US8642629B2, “Naphthylacetic acids” (Hoffmann-La Roche Inc., priority 2008, dated 2014).

Molecular target: T1, human CRTH2 (Homo sapiens, UniProt Q9Y5Y4)
T1 construct: expressed in transfected cells; host or cells: CHO-K1
T1 sequence (Q9Y5Y4 1-395): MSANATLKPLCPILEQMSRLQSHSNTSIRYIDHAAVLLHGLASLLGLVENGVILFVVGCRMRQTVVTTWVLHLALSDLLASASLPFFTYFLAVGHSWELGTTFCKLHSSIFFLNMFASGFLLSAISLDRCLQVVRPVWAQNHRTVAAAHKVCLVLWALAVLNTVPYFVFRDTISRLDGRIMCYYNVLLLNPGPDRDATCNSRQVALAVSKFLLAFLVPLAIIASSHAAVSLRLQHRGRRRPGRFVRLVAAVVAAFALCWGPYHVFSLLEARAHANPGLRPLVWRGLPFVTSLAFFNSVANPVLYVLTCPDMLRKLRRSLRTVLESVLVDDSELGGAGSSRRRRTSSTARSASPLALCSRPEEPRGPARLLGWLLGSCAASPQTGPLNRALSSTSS
Experiment: Human CRTH2 Receptor Binding Assay (whole cell, [3H]ramatroban competition)
Conditions: CHO-K1 cells expressing human CRTH2 and G-alpha16; 20 nM [3H]ramatroban; 1 hour, room temperature
Source text: A whole cell receptor binding assay using [^3H]ramatroban as the competing radioactive ligand was employed to evaluate the compound binding activity to human CRTH2. The radioactive ligand [^3H]ramatroban was synthesized according to Sugimoto et. al. (Eur. J. Pharmacol. 524, 30-37, 2005) to a specific activity of 42 Ci/mmol.
A cell line stably expressing human CRTH2 was established by transfecting CHO-K1 cells with two mammalian expression vectors that harbored human CRTH2 and G-alpha16 cDNAs, respectively, using FuGene® 6 transfection reagent (from Roche). Stable clones expressing CRTH2 were selected by staining each clone with BM16 (BD Pharmingen™ from BD Biosciences, a division of Becton, Dickinson and Company), which is a rat monoclonal antibody to human CRTH2. The cells were maintained as monolayer cultures in Ham's F-12 medium containing 10% fetal bovine serum, 100 units/mL penicillin, 100 μg/mL streptomycin, 2 mM glutamine, 0.5 mg/mL G418 (geneticin) for CRTH2, and 0.2 mg/mL hygromycin-B (for G-alpha 16). For whole cell receptor binding assay, the monolayer cells were rinsed once with PBS (phosphate buffered saline), dissociated using ethylenediaminetetraacetate (Versene™ EDTA from Lonza Inc.), and suspended in PBS containing 10 mM MgCl2 and 0.06% BSA (bovine serum albumin) at 1.5×10^6 cells/mL.
The binding reactions (0.2 mL) were performed in 96-well plates at room temperature in PBS containing 1.5×10^5 cells, 10 mM MgCl2, 0.06% BSA, 20 nM [^3H]ramatroban, and test compound at various concentrations. After 1 hour of binding reactions, the cells were harvested on GF™/B filter microplates (microtiter plates with embedded glass fiber from PerkinElmer, Inc.) and washed 5 times with PBS using a Filtermate™ Harvester (a cell harvester that harvests and washes cells from microplates from PerkinElmer, Inc.). The radioactivities bound to the cells were determined using a microplate scintillation counter (TopCount® NXT, from PerkinElmer, Inc.) after adding 50 μL of Microscint™ 20 scintillation fluid (from PerkinElmer, Inc.) to each well of the filter plates. The radioactivity from non-specific binding was determined by replacing compound with 10 μM of 15(R)-15-methyl PGD2 (from Cayman Chemical Company) in the reaction mixtures. The radioactivity bound to the cells in the absence of compound (total binding) was determined by replacing compound with 0.25% of DMSO (dimethyl sulfoxide) in the reaction mixture. Specific binding data were obtained by subtracting the radioactivity of non-specific binding from each binding data.
The IC50 value is defined as the concentration of the tested compound that is required for 50% inhibition of total specific binding. In order to calculate the IC50 value, the percent inhibition data were determined for 7 concentrations for each compound. The percent inhibition for a compound at each concentration was calculated according to the following formula, [1−(specific binding in the presence of compound)/(total specific binding)]×100. The IC50 value was then obtained by fitting the percent inhibition data to a sigmoidal dose-response (4 parameter logistic) model in the XLfit® software Excel add-in program [from ID Business Solutions Ltd., model 205, where F(x)=(A+(B−A)/(1+((C/x)^D)))].

SMILES | IC50
Cc1cc(Oc2c(C)c(CC(=O)O)cc3ccc(F)cc23)ccc1S(C)(=O)=O [Example 2-6, [6-fluoro-4-(4-methanesulfonyl-3-methyl-phenoxy)-3-methyl-naphthalen-2-yl]-acetic acid] | 2.7 nM
Cc1c(CC(=O)O)cc2ccc(F)cc2c1Oc1ccc(S(=O)(=O)N2CCOCC2)cc1 [Example 2-40, {6-fluoro-3-methyl-4-[4-(morpholine-4-sulfonyl)-phenoxy]-naphthalen-2-yl}-acetic acid] | 6.3 nM
Cc1c(CC(=O)O)cc2ccc(Cl)cc2c1Oc1ccc(S(C)(=O)=O)cc1 [Example 2-7, [6-Chloro-4-(4-methanesulfonyl-phenoxy)-3-methyl-naphthalen-2-yl]-acetic acid] | 2.2 nM
CCS(=O)(=O)c1ccc(Oc2c(C)c(CC(=O)O)cc3ccc(F)cc23)cc1 [Example 2-1, [4-(4-ethanesulfonyl-phenoxy)-6-fluoro-3-methyl-naphthalen-2-yl]-acetic acid] | 3.2 nM
CS(=O)(=O)c1cnc(Oc2cc(CC(=O)O)cc3ccc(F)cc23)c(Br)c1 [Example 1-14, [4-(3-bromo-5-methanesulfonyl-pyridin-2-yloxy)-6-fluoro-naphthalen-2-yl]-acetic acid] | 19.1 nM
CCS(=O)(=O)c1cnc(Oc2cc(CC(=O)O)cc3ccc(F)cc23)c(Br)c1 [Example 1-13, [4-(3-bromo-5-ethanesulfonyl-pyridin-2-yloxy)-6-fluoro-naphthalen-2-yl]-acetic acid] | 2.3 nM
CCS(=O)(=O)c1ccc(Oc2cc(CC(=O)O)cc3ccc(OC(F)(F)F)cc23)cc1 [Example 1-19, [4-(4-Ethanesulfonyl-phenoxy)-6-trifluoromethoxy-naphthalen-2-yl]-acetic acid] | 2.6 nM
Cc1c(CC(=O)O)cc2ccc(F)cc2c1Oc1ccc(S(=O)(=O)C2CC2)cc1 [Example 2-5, [4-(4-cyclopropanesulfonyl-phenoxy)-6-fluoro-3-methyl-naphthalen-2-yl]-acetic acid] | 3.5 nM
Cc1c(CC(=O)O)cc2ccc(F)cc2c1Oc1ccc(S(C)(=O)=O)cc1F [Example 2-12, [6-fluoro-4-(2-fluoro-4-methanesulfonyl-phenoxy)-3-methyl-naphthalen-2-yl]-acetic acid] | 1.8 nM
CCS(=O)(=O)c1ccc(Oc2cc(CC(=O)O)cc3cc(F)ccc23)cc1 [Example 1-20, [4-(4-Ethanesulfonyl-phenoxy)-7-fluoro-naphthalen-2-yl]-acetic acid] | 18.1 nM
CCS(=O)(=O)c1ccc(Oc2c(C)c(CC(=O)O)cc3ccc(F)cc23)c(C#N)c1 [Example 2-18, [4-(2-cyano-4-ethanesulfonyl-phenoxy)-6-fluoro-3-methyl-naphthalen-2-yl]-acetic acid] | 1.7 nM
Cc1cc(S(C)(=O)=O)ccc1Oc1c(C)c(CC(=O)O)cc2ccc(Cl)cc12 [Example 2-9, [6-chloro-4-(4-methanesulfonyl-2-methyl-phenoxy)-3-methyl-naphthalen-2-yl]-acetic acid] | 2.7 nM
Cc1c(CC(=O)O)cc2ccc(F)cc2c1Oc1ccc(S(=O)(=O)N(C)C)cc1 [Example 2-37, [4-(4-dimethylsulfamoyl-phenoxy)-6-fluoro-3-methyl-naphthalen-2-yl]-acetic acid] | 1.9 nM
CCS(=O)(=O)c1cc(F)c(Oc2c(C)c(CC(=O)O)cc3ccc(F)cc23)cc1Cl [Example 2-24, [4-(5-chloro-4-ethanesulfonyl-2-fluoro-phenoxy)-6-fluoro-3-methyl-naphthalen-2-yl]-acetic acid] | 8.2 nM
CCS(=O)(=O)c1ccc(Oc2cc(CC(=O)O)cc3ccc(C(F)(F)F)cc23)nc1 [Example 1-16, [4-(5-Ethanesulfonyl-pyridin-2-yloxy)-6-trifluoromethyl-naphthalen-2-yl]-acetic acid] | 19.1 nM
CCS(=O)(=O)c1ccc(Oc2c(C)c(CC(=O)O)cc3ccc(F)cc23)cc1Cl [Example 2-19, [4-(3-chloro-4-ethanesulfonyl-phenoxy)-6-fluoro-3-methyl-naphthalen-2-yl]-acetic acid] | 12.4 nM
Cc1c(CC(=O)O)cc2ccc(Cl)cc2c1Oc1ccc(C#N)cc1 [Example 2-45, [6-chloro-4-(4-cyano-phenoxy)-3-methyl-naphthalen-2-yl]-acetic acid] | 134 nM
CCS(=O)(=O)c1cnc(Oc2c(C)c(CC(=O)O)cc3ccc(F)cc23)c(C)c1 [Example 2-35, [4-(5-ethanesulfonyl-3-methyl-pyridin-2-yloxy)-6-fluoro-3-methyl-naphthalen-2-yl]-acetic acid] | 2.9 nM
Cc1c(CC(=O)O)cc2ccc(F)cc2c1Oc1ccc(S(=O)(=O)N2CC3(COC3)C2)cc1 [Example 2-43, {6-fluoro-3-methyl-4-[4-(2-oxa-6-aza-spiro[3.3]heptane-6-sulfonyl)-phenoxy]-naphthalen-2-yl}-acetic acid] | 1.8 nM
Cc1c(CC(=O)O)cc2ccc(F)cc2c1Oc1cc(F)c(S(C)(=O)=O)cc1F [Example 2-15, [4-(2,5-difluoro-4-methanesulfonyl-phenoxy)-6-fluoro-3-methyl-naphthalen-2-yl]-acetic acid] | 2.6 nM

The remaining lines, values ahead:

IC50 | SMILES
17.5 nM | CCc1c(CC(=O)O)cc2ccc(F)cc2c1Oc1ccc(S(=O)(=O)CC)cn1 [Example 19-1]
2.8 nM | CCS(=O)(=O)c1cnc(Oc2c(C)c(CC(=O)O)cc3ccc(F)cc23)c(C2CC2)c1 [Example 21-1, [4-(3-Cyclopropyl-5-ethanesulfonyl-pyridin-2-yloxy)-6-fluoro-3-methyl-naphthalen-2-yl]-acetic acid]
7.5 nM | CS(=O)(=O)c1ccc(Sc2cc(CC(=O)O)cc3ccc(F)cc23)cc1 [Example 9-1, [6-fluoro-4-(4-methanesulfonyl-phenylsulfanyl)-naphthalen-2-yl]-acetic acid]
7.7 nM | CS(=O)(=O)c1ccc(S(=O)(=O)c2cc(CC(=O)O)cc3ccc(F)cc23)cc1 [Example 11-1, [6-fluoro-4-(4-methanesulfonyl-benzenesulfonyl)-naphthalen-2-yl]-acetic acid]
91.5 nM | CCS(=O)(=O)c1ccc(Oc2cc(CC(=O)O)cc3ccc(S(C)(=O)=O)cc23)cc1 [Example 16-1, [4-(4-Ethanesulfonyl-phenoxy)-6-methanesulfonyl-naphthalen-2-yl]-acetic acid]
12.4 nM | C=Cc1c(CC(=O)O)cc2ccc(F)cc2c1Oc1ccc(S(=O)(=O)CC)cn1 [Example 17-1, [4-(5-Ethanesulfonyl-pyridin-2-yloxy)-6-fluoro-3-vinyl-naphthalen-2-yl]-acetic acid]
2.9 nM | CCc1cc(S(=O)(=O)CC)cnc1Oc1c(C)c(CC(=O)O)cc2ccc(F)cc12 [Example 20-1, [4-(5-Ethanesulfonyl-3-ethyl-pyridin-2-yloxy)-6-fluoro-3-methyl-naphthalen-2-yl]-acetic acid]
10.3 nM | CS(=O)(=O)c1ccc([S+]([O-])c2cc(CC(=O)O)cc3ccc(F)cc23)cc1 (centres unmarked) [Example 10-1, [6-fluoro-4-(4-methanesulfonyl-benzenesulfinyl)-naphthalen-2-yl]-acetic acid]
5.4 nM | CCS(=O)(=O)c1ccc(Oc2cc(CC(=O)O)cc3ccc(Br)cc23)cc1 [Example 15-1, [6-Bromo-4-(4-ethanesulfonyl-phenoxy)-naphthalen-2-yl]-acetic acid]
